This note sets out measurements from PubChem BioAssay (NCI).

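Assay format: 96-well plates, 48-hour exposure. TGI: concentration producing complete growth inhibition.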

What all share (assay): NCI anticancer screen, dose series, 48 h
Assay [1] relates to A498 renal.
The test system of assay [2] is HCC-2998 colon.
Assay [3] concerns HCT-15 colon.
For assay [4], the system named is HT29 colon.
For assay [5], the system named is K-562 leukemia.
For assay [6], the system named is MCF7 breast.
The subject of assay [7] is MDA-MB-231 breast.
In assay [8] the test system is NCI-H226 lung.
In assay [9] the test system is OVCAR-5 ovarian.
Assay [10] concerns T-47D breast.

Consider `O=C1CC2(CCC(O)(c3cccs3)C(C(=O)c3cccs3)C2)C(=O)c2ccccc2N1` (stereo not drawn), for which the TGI in [1], in assay [2], in [3], in assay [4], in assay [5] and in assay [6] was > 100 µM in each case. In addition, the TGI in assay [7], in [8], in [9] and in assay [10] was > 100 µM throughout.

`C1=CC(=[N+]2N=C(c3ccccc3)CC2c2ccccc2)C=CC1=C1SC(c2ccccc2)(c2ccccc2)c2ccccc21` (stereo not drawn): the TGI in assay [1], in assay [2], in [3], in assay [4], in assay [5] and in [6] was > 100 µM each time. For the same compound, the TGI in [7], in assay [8], in assay [9] and in assay [10] was > 100 µM each time.

Take `N#Cc1c(N)nc2c(c1-c1ccc(Br)cc1)CSc1ccccc1-2`: the TGI in assay [1] is > 100 µM; in [3], > 100 µM; in assay [4] it was > 100 µM; in assay [5], > 100 µM; in assay [6] it was > 100 µM; in [7], 51.6 µM. The TGI in [8] is 85.6 µM; in assay [10] it was 58.2 µM.

Regarding `Nc1ccc(Oc2ccc(C34CC5CC(C3)CC(c3ccc(Oc6ccc(N)cc6)cc3)(C5)C4)cc2)cc1`, the TGI in assay [1] was 27.3 µM; in assay [2], 19.3 µM; in assay [3], > 63.9 µM; in assay [4] it was > 55 µM; in assay [5], > 100 µM; in assay [6], 21.6 µM. Further, the TGI in assay [7] was found to be 32.9 µM; in [8], 75.2 µM; in assay [9], 62.2 µM; in assay [10] it was 66.3 µM.

As for `CCOC(=O)C(=O)NCCCN1CCOCC1`, the TGI in [1], in assay [2], in assay [3], in [4], in [5] and in assay [8] was > 100 µM throughout. In addition, in [9], the TGI is > 100 µM.

As to `O=c1c2ccccc2[nH]c(=S)n1-c1ccc(N=Nc2cccc3cc(O)ccc23)cc1`, the TGI in assay [2], in assay [3], in assay [4], in assay [5], in [6] and in assay [7] was > 100 µM each time. The TGI in assay [8], in assay [9] and in [10] was > 100 µM throughout.

For the compound `O=[N+]([O-])c1ccc2c(c1)nc(Cc1ccc(Cl)cc1)n2C[C@@H]1CCCN2CCCCC12` (stereo partly drawn), the TGI in [1] was 21.7 µM; in assay [2], 18.8 µM; in [3] it was 37.8 µM; in assay [4], 28.8 µM; in assay [5], > 54.1 µM; in [6], 22.5 µM. Moreover, the TGI in [7] is 32.6 µM; in assay [8] it was 38.3 µM; in assay [9] it was 35.3 µM; in assay [10], 36.6 µM.

Take `Cc1cc(=O)[nH]c(/N=C(\N)Nc2ccc(Cl)cc2)n1`: the TGI in assay [1], in [2], in [3], in assay [4], in assay [5] and in assay [7] was > 100 µM in each case. The TGI in [8], in assay [9] and in assay [10] was > 100 µM throughout.

With `O=c1[nH]c(Nc2ccc(Cl)cc2)nc2nc[nH]c12`, the TGI in [1], in assay [2], in [3], in assay [4], in [6] and in assay [7] was > 100 µM each time. The TGI in [8], in [9] and in assay [10] was > 100 µM in each case.

On to `COC(=O)C1=C(O)CCCC(CCC(C)=O)=C1`, for which the TGI in assay [1], in [2], in [3], in [4], in assay [5] and in assay [7] was > 100 µM each time. The TGI in assay [8], in assay [9] and in assay [10] was > 100 µM throughout.

For the compound `COc1ccc(C2c3cc4c(cc3OC(O)(CO)C2C(=O)O)OCO4)cc1` (stereo not drawn) (tested in a mixture with another compound), the TGI was > 100 µM in assay [1]; 38.2 µM in [2]; 35.6 µM in assay [3]; 52.4 µM in assay [4]; 40.2 µM in assay [5]; 47.7 µM in assay [8]. The TGI in [9] was > 100 µM.

Consider `O=S(=O)(O)c1cc(N=[N+]([O-])c2cc(S(=O)(=O)O)c3ccccc3c2)cc2ccccc12`, for which the TGI in assay [1], in assay [2], in assay [3], in assay [4], in assay [5] and in [6] was > 100 µM throughout. The TGI in [7], in assay [8], in [9] and in assay [10] was > 100 µM throughout.

Take `COC(CN(C=O)[C@@H](c1ccc(Cl)cc1)c1cc2ccccc2o1)OC`: the TGI in assay [1] is 33.1 µM; in assay [3], 32.8 µM; in assay [4], 36.3 µM; in assay [5] it was 53.6 µM; in assay [6], 34.8 µM; in assay [7], 37 µM. In addition, the results for the TGI in assay [8], in [9] and in assay [10] were 34 µM, 29.8 µM and 33.8 µM, respectively.

Regarding `Cc1ccccc1NC(=O)CC(=O)N1N=C(N2c3ccccc3Sc3ccccc32)CC1c1ccccc1` (stereo not drawn), the TGI in [1], in [2], in [3], in [4], in assay [8] and in assay [9] was > 100 µM each time.
